The record followed here is US20230227466A1, “SUBSTITUTED THIENOPYRIMIDINES THAT INTERACT WITH THE RAS SUPERFAMILY FOR THE TREATMENT OF CANCERS, INFLAMMATORY DISEASES, RASOPATHIES, AND FIBROTIC DISEASE” (SHY Therapeutics, LLC, priority 2020, published 2023).

Where two headings read alike, the source gives them in different places.

One assay concerns the target KRas wild type (Homo sapiens, UniProt P01116). Description: Ras GTP binding domain inhibition assay (labeled-GTP competition, cell-free). More on the design: made in house. The method, boiled down:
(§1)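 Immobilized His-tagged protein (Ni plate, 10-30 μg/mL, overnight 4° C); compound 20 μM or dilution series, 1% DMSO, 3 h RT, ±Sos 556-1049 last hour; Cy3/Cy5-GTP 100 nM, 45 min RT; 3× wash; bound fluorescence read.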

Another assay deals with Rho-A (Homo sapiens, UniProt P61586). The description is as above. On the set-up: made in house. The method, boiled down:
as §1

The target of another assay is Rac-1 (Homo sapiens, UniProt P63000). Described as above. On the set-up: made in house. The method, boiled down:
as §1

In assay [1] the test system is ERK1/2 phosphorylation in Panc-1 cells. Put plainly: Western ERK1/2 cell-based phosphorylation assay. On the set-up: species or system human. The conditions noted are these: at 10 μM, values in brackets < > are activation %, not inhibition. The method, boiled down: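 Panc-1 cells starved overnight in 0.5% FBS, then exposed 6 h at 37 °C to compound at 10 μM final (0.3% DMSO) or serial dilutions for IC50. Stimulation with 1.5 ng/ml EGF for 15 min; phospho-ERK1/2 (Thr202/Tyr204) read by western blot on equal protein loads.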

The subject of assay [2] is Akt phosphorylation in Panc-1 cells. Description: Western AKT cell-based phosphorylation assay. More on the design: species or system human. The conditions noted are these: at 10 μM, values in brackets < > are activation %, not inhibition. The method, boiled down: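 Panc-1 cells starved overnight in 0.5% FBS, exposed to compound at 10 μM (0.3% DMSO) for 6 h at 37° C, then stimulated with 1.5 ng/ml EGF for 15 min. Lysates probed by western blot with anti-phospho-Akt (Ser473), equal protein loading checked by Ponceau S.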

Where [3] appears, read: with SOS, read-out: KRas wild type + SOS: % inh.
Where [4] appears, read: without SOS, read-out: KRas wild type: % inh.
Where [5] appears, read: without SOS, read-out: Rho-A: % inh.
[6] abbreviates: without SOS, read-out: Rac-1: % inh.
The mark [7] stands for this setting: with SOS, read-out: Rho-A + SOS: % inh.
[8] abbreviates: with SOS, read-out: Rac-1 + SOS: % inh.

For the compound `CCOCCn1ccnc1-c1nc(O)c2scc(-c3ccccn3)c2n1` [Compound 80, 2-(1-(2-Ethoxyethyl)-1H-imidazol-2-yl)-7-(pyridin-2-yl)thieno[3,2-d]pyrimidin-4-ol], the inhibition at 20 µM on KRas wild type (setting [3]) lay in the range of 51 to 75%; at KRas wild type (setting [4]), 76 to 100%; at Rho-A (setting [5]), 51 to 75%; on Rac-1 (setting [6]), 76 to 100%. The “% inh of ERK1/2 phosphorylation in PANC-1” value in assay [1] was “A (1-25% inhibition)”. The “% inh of AKT phosphorylation in PANC-1” value in assay [2] is reported as “<D>”.

As for `Oc1nc(-c2nccn2CCOCC(F)(F)F)nc2c(-c3ccccn3)csc12` [Compound 81, 7-(Pyridin-2-yl)-2-(1-(2-(2,2,2-trifluoroethoxy)ethyl)-1H-imidazol-2-yl)thieno[3,2-d]pyrimidin-4-ol], the inhibition at 20 µM on KRas wild type (setting [3]), on KRas wild type (setting [4]), at Rho-A (setting [5]) and on Rac-1 (setting [6]) was 76 to 100% throughout. Moreover, in assay [1], the “% inh of ERK1/2 phosphorylation in PANC-1” value is “B (26-50% inhibition)”. In addition, the “% inh of AKT phosphorylation in PANC-1” value in assay [2] is reported as “<D>”.

As for `CC(C)OCCn1ccnc1-c1nc(O)c2scc(-c3ccccn3)c2n1` [Compound 82, 2-(1-(2-Isopropoxyethyl)-1H-imidazol-2-yl)-7-(pyridin-2-yl)thieno[3,2-d]pyrimidin-4-ol], the inhibition at 20 µM on KRas wild type (setting [3]) lay within 51 to 75%; at KRas wild type (setting [4]), 51 to 75%; on Rho-A (setting [5]), 51 to 75%; at Rac-1 (setting [6]), 76 to 100%. Besides, in assay [1], the “% inh of ERK1/2 phosphorylation in PANC-1” value is listed as “A (1-25% inhibition)”. Besides, in assay [2], the “% inh of AKT phosphorylation in PANC-1” value is “<D>”.

`Oc1nc(-c2nccn2CCOCc2ccccc2)nc2c(-c3ccccn3)csc12` [Compound 83, 2-(1-(2-(Benzyloxy)ethyl)-1H-imidazol-2-yl)-7-(pyridin-2-yl)thieno[3,2-d]pyrimidin-4-ol]: the inhibition at 20 µM lay in the range of 26 to 50% on KRas wild type (setting [3]), 51 to 75% on KRas wild type (setting [4]), 51 to 75% at Rho-A (setting [5]) and 76 to 100% at Rac-1 (setting [6]). For the same compound, in assay [1], the “% inh of ERK1/2 phosphorylation in PANC-1” value is given as “B (26-50% inhibition)”. The “% inh of AKT phosphorylation in PANC-1” value in assay [2] is on record as “<D>”.

Regarding `COc1cccn2c(-c3nc(O)c4scc(-c5ccccn5)c4n3)ncc12` [Compound 84, 2-(8-Methoxyimidazo[1,5-a]pyridin-3-yl)-7-(pyridin-2-yl)thieno[3,2-d]pyrimidin-4-ol], the inhibition at 20 µM was 1 to 25% at KRas wild type (setting [3]), 26 to 50% on KRas wild type (setting [4]), 51 to 75% on Rho-A (setting [5]) and 26 to 50% on Rac-1 (setting [6]). Also, in assay [1], the “% inh of ERK1/2 phosphorylation in PANC-1” value is 0 (0% inhibition). For the same compound, the “% inh of AKT phosphorylation in PANC-1” value in assay [2] was “A (1-25% inhibition)”.

Regarding `CO[C@H]1C[C@@H](Nc2nc(-c3nccn3C)nc3sc(-c4ccn(C(C)C)n4)c(C)c23)C1` [Compound 96, 6-(1-isopropyl-1H-pyrazol-3-yl)-N-((1s,3s)-3-methoxycyclobutyl)-5-methyl-2-(1-methyl-1H-imidazol-2-yl)thieno[2,3-d]pyrimidin-4-amine], the inhibition at 20 µM on KRas wild type (setting [3]) is 1 to 25%; at KRas wild type (setting [4]), 0%; at Rho-A (setting [7]), 0%; at Rho-A (setting [5]), 0%; at Rac-1 (setting [8]) it was 1 to 25%; at Rac-1 (setting [6]) it was 1 to 25%. The “% inh of ERK1/2 phosphorylation in PANC-1” value in assay [1] is listed as “B (26-50% inhibition)”. Further, the “% inh of AKT phosphorylation in PANC-1” value in assay [2] was 0 (0% inhibition).

`CO[C@@H]1CC[C@H](Nc2nc(-c3nccn3C)nc3sc(-c4ccn(C(C)C)n4)c(-c4ccccc4)c23)C1` [Example 4, 6-(1-isopropyl-1H-pyrazol-3-yl)-N-((1S,3R)-3-methoxycyclopentyl)-2-(1-methyl-1H-imidazol-2-yl)-5-phenylthieno[2,3-d]pyrimidin-4-amine]: the inhibition at 20 µM fell in the range of 76 to 100% on KRas wild type (setting [3]); 51 to 75% at KRas wild type (setting [4]); 26 to 50% at Rho-A (setting [7]); 26 to 50% on Rho-A (setting [5]); 26 to 50% on Rac-1 (setting [8]); 1 to 25% at Rac-1 (setting [6]). Moreover, in assay [1], the “% inh of ERK1/2 phosphorylation in PANC-1” value is on record as “D (76-100% inhibition)”. The “% inh of AKT phosphorylation in PANC-1” value in assay [2] is “D (76-100% inhibition)”.
